Assay results: US11767322B2 (BRISTOL-MYERS SQUIBB COMPANY, priority 2020, dated 2023)
Like-named read-outs stand apart in the source and are kept apart here.

Tests used:
[1] = target: T1, His-GST-TVMV-hRIPK1(1-324) (Homo sapiens, UniProt Q13546); experiment: biochemical; assay type: binding
T1 construct: The coding region of human RIPK1(1-324) flanked by NdeI site at 5′ end; made in house; host or cells: Spodoptera frugiperda Sf9 insect cells (baculovirus, Bac-to-Bac)
T1 sequence (Q13546 1-324): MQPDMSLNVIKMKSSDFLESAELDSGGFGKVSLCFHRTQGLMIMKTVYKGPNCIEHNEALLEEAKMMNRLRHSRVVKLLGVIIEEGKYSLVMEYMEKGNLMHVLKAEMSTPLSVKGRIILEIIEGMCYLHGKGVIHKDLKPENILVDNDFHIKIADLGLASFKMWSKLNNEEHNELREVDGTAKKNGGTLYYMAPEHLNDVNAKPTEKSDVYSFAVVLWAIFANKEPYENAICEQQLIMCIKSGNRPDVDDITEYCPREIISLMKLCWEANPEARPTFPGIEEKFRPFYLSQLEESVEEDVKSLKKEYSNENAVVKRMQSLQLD

[2] = system: MLKL phosphorylation in HT29-L23 human colorectal adenocarcinoma cells; experiment: MLKL phosphorylation high-content assay; assay type: cell-based
[3] = HTRF probe displacement, 1 h at rt, read-out: RIPK1 IC50
[4] = read-out: pMLKL IC50, HT29-L23 cells, necroptosis induced with TNFα, SMAC mimetic and Z-VAD, 6 h, maximal inhibition defined by Nec1s
[5] = Homo sapiens, 6 h, read-out: pMLKL IC50, HT29-L23 cells, necroptosis induced with TNFα, SMAC mimetic and Z-VAD, 6 h, maximal inhibition defined by Nec1s
[6] = HT29-L23 cells, necroptosis induced with TNFα, SMAC mimetic and Z-VAD, 6 h, maximal inhibition defined by Nec1s, read-out: pMLKL IC50
[7] = Table 23, representative compounds from WO2018/148626, read-out: RIPK1 IC50
[8] = Homo sapiens, Table 23, representative compounds from WO2018/148626, read-out: pMLKL IC50
[9] = Table 22, compounds of the present invention, read-out: RPIK1 IC50
[10] = Homo sapiens, read-out: pMLKL IC50, Table 22, compounds of the present invention

[2H]C([2H])([2H])c1ccc(-c2ccn3nc(N)nc3c2)c(F)c1C(=O)NCC1(C([2H])(O)c2ccc(F)cc2)CC1 (single isomer, unassigned) [Example 310, 3-(2-amino-[1,2,4]triazolo[1,5-a]pyridin-7-yl)-2-fluoro-N-((1-((4-fluorophenyl) (hydroxy)methyl-d)cyclopropyl)methyl)-6-(methyl-d3)benzamide]
IC50 [1, 3]: 5.7 nM
IC50 [2, 4]: 20 nM

[2H]C(O)(c1ccc(C(F)F)cc1)C(F)(F)CNC(=O)c1c(Cl)ccc(-c2ccn3nc(N)nc3c2)c1F (single isomer, unassigned) [Example 311, 3-(2-amino-[1,2,4]triazolo[1,5-a]pyridin-7-yl)-6-chloro-N-(3-(4-(difluoromethyl)phenyl)-2,2-difluoro-3-hydroxypropyl-3-d)-2-fluorobenzamide]
IC50 [1, 3]: 5 nM
IC50 [2, 5]: 0.8 nM

[2H]C(O)(c1ccc(C(F)F)cc1)C(F)(F)CNC(=O)c1c(Cl)ccc(-c2ccn3nc(N)nc3c2)c1F (single isomer, unassigned) [Example 312, 3-(2-amino-[1,2,4]triazolo[1,5-a]pyridin-7-yl)-6-chloro-N-(3-(4-(difluoromethyl)phenyl)-2,2-difluoro-3-hydroxypropyl-3-d)-2-fluorobenzamide]
IC50 [1, 3]: 5.7 nM
IC50 [2, 4]: 0.9 nM

Cc1ccc(-c2ccn3nc(N)nc3c2C)c(F)c1C(=O)NCC[C@H](O)c1ccc(Cl)cc1 (single isomer, unassigned; enantiomer 1) [Example 137]
IC50 [1, 3]: 9.7 nM
IC50 [2, 6]: 0.9 nM

Cc1ccc(-c2ccn3nc(N)nc3c2C)c(F)c1C(=O)NCC[C@H](O)c1ccc(Cl)cc1 (single isomer, unassigned; enantiomer 2) [Example 138]
IC50 [1, 3]: 11 nM
IC50 [2, 6]: 0.2 nM

Cc1ncc(-c2ccn3nc(N)nc3c2)cc1C(=O)NCC(C)(O)Cc1ccc(F)cc1 (stereo not shown) [Compound 421 from WO2018/148626, reference compound]
IC50 [1, 7]: 110 nM
IC50 [2, 8]: 315 nM

Cc1cc(F)c(-c2ccn3nc(N)nc3c2)cc1C(=O)NCC[C@H](O)c1ccc(Cl)cc1 [Example 1, (S)-5-(2-amino-[1,2,4]triazolo[1,5-a]pyridin-7-yl)-N-(3-(4-chlorophenyl)-3-hydroxypropyl)-4-fluoro-2-methylbenzamide]
IC50 [1, 3]: 1.2 nM
IC50 [2, 5]: 1.3 nM

Cc1cc(F)c(-c2ccn3nc(N)nc3c2)cc1C(=O)NCCC(O)c1ccc(Cl)cn1 (stereo not shown) [Example 5, 5-(2-amino-[1,2,4]triazolo[1,5-a]pyridin-7-yl)-N-(3-(5-chloropyridin-2-yl)-3-hydroxypropyl)-4-fluoro-2-methylbenzamide]
IC50 [1, 3]: 6.4 nM
IC50 [2, 5]: 2.6 nM

Cc1cc(F)c(-c2ccn3nc(N)nc3c2)cc1C(=O)NCCC(O)c1ccc(F)cc1 (stereo not shown) [Example 8, 5-(2-amino-[1,2,4]triazolo[1,5-a]pyridin-7-yl)-4-fluoro-N-(3-(4-fluorophenyl)-3-hydroxypropyl)-2-methylbenzamide]
IC50 [1, 3]: 5.1 nM
IC50 [2, 5]: 2.3 nM

Cc1ccc(-c2ccn3nc(N)nc3c2)c(F)c1C(=O)NCCC(O)C1CCCCC1 (stereo not shown) [Example 40, 3-(2-amino-[1,2,4]triazolo[1,5-a]pyridin-7-yl)-N-(3-cyclohexyl-3-hydroxypropyl)-2-fluoro-6-methylbenzamide]
IC50 [1, 3]: 3.8 nM
IC50 [2, 5]: 1.5 nM

Cc1ccc(-c2ccn3nc(N)nc3c2)c(F)c1C(=O)NCCC(O)c1ccc(F)cc1 (stereo not shown) [Example 49, 3-(2-amino-[1,2,4]triazolo[1,5-a]pyridin-7-yl)-2-fluoro-N-(3-(4-fluorophenyl)-3-hydroxypropyl)-6-methylbenzamide]
IC50 [1, 3]: 2.5 nM
IC50 [1, 9]: 2.5 nM
IC50 [2, 5]: 2.6 nM
IC50 [2, 10]: 2.6 nM

Cc1ccc(-c2ccn3nc(N)nc3c2)c(F)c1C(=O)NCCC(O)c1ccc(C(F)(F)F)cc1 (stereo not shown) [Example 55, 3-(2-amino-[1,2,4]triazolo[1,5-a]pyridin-7-yl)-2-fluoro-N-(3-hydroxy-3-(4-(trifluoromethyl)phenyl)propyl)-6-methylbenzamide]
IC50 [1, 3]: 0.3 nM
IC50 [2, 5]: 0.9 nM

[2H]C([2H])(CC([2H])(O)c1ccc(Cl)cc1)NC(=O)c1c(Cl)ccc(-c2ccn3nc(N)nc3c2)c1F (stereo not shown) [Example 75, 3-(2-amino-[1,2,4]triazolo[1,5-a]pyridin-7-yl)-6-chloro-N-(3-(4-chlorophenyl)-3-hydroxypropyl-1,1,3-d3)-2-fluorobenzamide]
IC50 [1, 3]: 3.2 nM
IC50 [2, 4]: 4.3 nM

Nc1nc2cc(-c3ccc(Cl)c(C(=O)NCCC(O)c4ccc(F)cc4)c3F)ccn2n1 (stereo not shown) [Example 78, 3-(2-amino-[1,2,4]triazolo[1,5-a]pyridin-7-yl)-6-chloro-2-fluoro-N-(3-(4-fluorophenyl)-3-hydroxypropyl)benzamide]
IC50 [1, 3]: 19 nM
IC50 [1, 9]: 19 nM
IC50 [2, 5]: 9.9 nM
IC50 [2, 10]: 9.9 nM

COc1ncc(-c2ccn3nc(N)nc3c2)cc1C(=O)NCCC(O)c1ccc(F)cc1 (stereo not shown) [Example 78]
IC50 [1, 7]: 120 nM
IC50 [2, 8]: 146 nM

Nc1nc2cc(-c3ccc(Cl)c(C(=O)NCCC(O)c4ccc(Cl)cn4)c3F)ccn2n1 (stereo not shown) [Example 81, 3-(2-amino-[1,2,4]triazolo[1,5-a]pyridin-7-yl)-6-chloro-N-(3-(5-chloropyridin-2-yl)-3-hydroxypropyl)-2-fluorobenzamide]
IC50 [1, 3]: 24 nM
IC50 [2, 5]: 38 nM

[2H]C([2H])([2H])c1ccc(-c2ccn3nc(N)nc3c2)c(F)c1C(=O)NCC(F)(F)C(O)c1ccc(F)cc1 (stereo not shown) [Example 123, 3-(2-amino-[1,2,4]triazolo[1,5-a]pyridin-7-yl)-N-(2,2-difluoro-3-(4-fluorophenyl)-3-hydroxypropyl)-2-fluoro-6-(methyl-d3)benzamide]
IC50 [1, 3]: 5.7 nM
IC50 [2, 5]: 0.8 nM

Nc1nc2cc(-c3ccc(Cl)c(C(=O)NCC(F)C(O)c4ccc(Cl)cc4)c3F)ccn2n1 (stereo not shown) [Example 128, 3-(2-amino-[1,2,4]triazolo[1,5-a]pyridin-7-yl)-6-chloro-N-(3-(4-chlorophenyl)-2-fluoro-3-hydroxypropyl)-2-fluorobenzamide]
IC50 [1, 3]: 5 nM
IC50 [2, 5]: 1.2 nM

Nc1nc2cc(-c3ccc(Cl)c(C(=O)NCC(F)C(O)c4ccc(Cl)cc4)c3F)ccn2n1 (stereo not shown) [Example 129, 3-(2-amino-[1,2,4]triazolo[1,5-a]pyridin-7-yl)-6-chloro-N-(3-(4-chlorophenyl)-2-fluoro-3-hydroxypropyl)-2-fluorobenzamide]
IC50 [1, 3]: 3.5 nM
IC50 [2, 4]: 1.7 nM

Cc1ccc(-c2ccn3nc(N)nc3c2)c(F)c1C(=O)NCCC(O)c1cccc(C#N)c1 (stereo not shown) [Example 140, 3-{2-amino-[1,2,4]triazolo[1,5-a]pyridin-7-yl}-N-[3-(3-cyanophenyl)-3-hydroxypropyl]-2-fluoro-6-methylbenzamide]
IC50 [1, 3]: 0.6 nM
IC50 [2, 5]: 13 nM

Cc1ccc(-c2ccn3nc(N)nc3c2)c(F)c1C(=O)NCCC(C)(O)c1ccc(C#N)cc1 (stereo not shown) [Example 141, 3-{2-amino-[1,2,4]triazolo[1,5-a]pyridin-7-yl}-N-[3-(4-cyanophenyl)-3-hydroxybutyl]-2-fluoro-6-methylbenzamide]
IC50 [1, 3]: 22 nM
IC50 [2, 5]: 38 nM

Cc1ccc(-c2ccn3nc(N)nc3c2)c(F)c1C(=O)NCC[C@H](O)c1ccc(Cl)cc1 [Example 151, (S)-3-(2-amino-[1,2,4]triazolo[1,5-a]pyridin-7-yl)-N-(3-(4-chlorophenyl)-3-hydroxypropyl)-2-fluoro-6-methylbenzamide]
IC50 [1, 3]: 2.8 nM
IC50 [1, 9]: 3.5 nM
IC50 [2, 5]: 0.8 nM
IC50 [2, 10]: 0.8 nM

CCc1cc(F)c(-c2ccn3nc(N)nc3c2)cc1C(=O)NCC[C@H](O)c1ccc(Cl)cc1 [Example 157]
IC50 [1, 3]: 3.1 nM
IC50 [2, 5]: 6.7 nM

Nc1nc2cc(-c3ccc(Cl)c(C(=O)NCC(F)(F)C(O)c4ccc(C(F)(F)F)cc4F)c3F)ccn2n1 (stereo not shown) [Example 164, 3-(2-amino-[1,2,4]triazolo[1,5-a]pyridin-7-yl)-6-chloro-N-(2,2-difluoro-3-(2-fluoro-4-(trifluoromethyl)phenyl)-3-hydroxypropyl)-2-fluorobenzamide]
IC50 [1, 3]: 2.8 nM
IC50 [2, 5]: 2.9 nM

Nc1nc2cc(-c3ccc(Cl)c(C(=O)NCC(F)(F)C(O)c4ccc(C(F)(F)F)cc4F)c3F)ccn2n1 (stereo not shown) [Example 165, 3-(2-amino-[1,2,4]triazolo[1,5-a]pyridin-7-yl)-6-chloro-N-(2,2-difluoro-3-(2-fluoro-4-(trifluoromethyl)phenyl)-3-hydroxypropyl)-2-fluorobenzamide]
IC50 [1, 3]: 1.6 nM
IC50 [2, 4]: 2.8 nM

Cc1ccc(C(O)C(F)(F)CNC(=O)c2c(Cl)ccc(-c3ccn4nc(N)nc4c3)c2F)cc1 (stereo not shown) [Example 173, 3-(2-amino-[1,2,4]triazolo[1,5-a]pyridin-7-yl)-6-chloro-N-(2,2-difluoro-3-hydroxy-3-(p-tolyl)propyl)-2-fluorobenzamide]
IC50 [1, 3]: 0.9 nM
IC50 [2, 5]: 0.9 nM
